Assay results: US20200375945A1, “INHALABLE FORMULATION OF A SOLUTION CONTAINING INDACATEROL MALEATE AND GLYCOPYRRONIUM BROMIDE” (priority 2019, published 2020)

Legend:
[1] = Aerodynamic particle size distribution on Next Generation Impactor (NGI); assay type: physicochemical; conditions: sample 2 sprayed with soft mist inhaler, NGI at 30 L/min
Protocol: Sample 2 was sprayed with a soft mist inhaler. Aerodynamic particle size distribution of droplets of sample 2 was measured on Next Generation Impactor (NGI). Next Generation Impactor operated at a flow rate of 30 L/min was used for determination of particle size distribution. For each of the impactor experiments, the impactor collection stages were coated with a silicone oil. The aerodynamic particle size distribution is expressed in terms of mass median aerodynamic diameter (MMAD) and Geometric Standard Deviation (GSD).

[2] = Tested concentration and assay of the active ingredients in the inhalation solution; assay type: physicochemical; conditions: in the sample solutions (ethanol/water, benzalkonium chloride, edetate disodium dihydrate)

MMAD (mass median aerodynamic diameter) [1]: 3.37 μm
Dissolution of the active in the solution [2]: completely dissolved
SMILES: CCc1cc2c(cc1CC)CC(NC[C@H](O)c1ccc(O)c3[nH]c(=O)ccc13)C2.O=C(O)/C=C\C(=O)O [Indacaterol maleate, 5-[(R)-2-(5,6-diethyl-indan-2-ylamino)-1-hydroxy-ethyl]-8-hydroxy-(1H)-quinolin-2-one]
